What is called IC50 is the concentration that inhibits the measured activity by half.

Activity calls are given as the source filed them. The rule behind the calls is not given here.

The results in this text go back to ChEMBL document CHEMBL2401623, “Synthesis and antitumor activity of novel 3,4-diaryl squaric acid analogs” (Eur J Med Chem, 2013).

One assay concerns CCRF-CEM. Description: Cytotoxicity against human CEM cells assessed as growth inhibition after 72 hrs by MTT assay. Type of assay: functional, cell-based.
Assay [1] relates to Bel-7402. The experiment in a line: Cytotoxicity against human Bel7402 cells assessed as growth inhibition after 72 hrs by MTT assay. The class given is functional, cell-based. Conditions: Bel-7402, 72 h.
The next assay concerns HepG2. Description: Cytotoxicity against human HepG2 cells assessed as growth inhibition after 72 hrs by MTT assay. The class given is functional, cell-based. Conditions: HepG2, 72 h. Background: Formazan colour is commonly taken as a measure of viable cells.
The next assay has as its system SMMC-7721. Description: Cytotoxicity against human SMMC7721 cells assessed as growth inhibition after 72 hrs by MTT assay. The class given is functional, cell-based. As to conditions: SMMC-7721, 72 h.
Assay [2] relates to MCF7. Description: Cytotoxicity against human MCF7 cells assessed as growth inhibition after 72 hrs by MTT assay. Type of assay: functional, cell-based. Conditions: MCF7, 72 h.
For another assay, the system named is SW1990. Description: Cytotoxicity against human SW1990 cells assessed as growth inhibition after 72 hrs by MTT assay. As to conditions: SW1990, 72 h. Type of assay: functional, cell-based.
The subject of assay [3] is Bel-7402. The experiment in a line: Ratio of combretastatin A-4 IC50 to compound IC50 for human Bel7402 cells. Type of assay: functional.
The subject of assay [4] is MCF7. Description: Cell cycle arrest in human MCF7 cells assessed as accumulation at G2/M phase after 24 hrs by propidium iodide staining-based flow cytometric analysis. The class given is functional. In general terms: A flow cytometer gives signals particle by particle.
A further assay concerns HCT-116. Description: Cytotoxicity against human HCT116 cells assessed as growth inhibition after 72 hrs by MTT assay. Type of assay: functional, cell-based. As to conditions: HCT-116, 72 h.
Assay [5] concerns MCF7. The experiment in a line: Ratio of combretastatin A-4 IC50 to compound IC50 for human MCF7 cells. Type of assay: functional.
The subject of assay [6] is MCF7. Description: Cell cycle arrest in human MCF7 cells assessed as accumulation at G2/M phase at 0.02 uM after 24 hrs by propidium iodide staining-based flow cytometric analysis. Type of assay: functional.

Regarding `COc1cc(-c2c(-c3cc(OC)c(OC)c(OC)c3)c(=O)c2=O)cc(OC)c1OC`, in the assay on CCRF-CEM, the IC50 is greater than 20000 nM.
The same measure, in the same setting: the result for `COc1ccc(-c2c(-c3cc(OC)c(OC)c(OC)c3)c(=O)c2=O)cc1[N+](=O)[O-]` reads 12200 nM; that for `COc1ccc(-c2c(-c3ccc(OC)c(OC)c3)c(=O)c2=O)cc1`, 12700 nM; that for `COc1ccc(-c2c(-c3cc(OC)c(OC)c(OC)c3)c(=O)c2=O)c(OC)c1`, 1770 nM.
Turning to `COc1cc(-c2c(-c3ccc4[nH]ccc4c3)c(=O)c2=O)cc(OC)c1OC`, the IC50 with Bel-7402 [1] amounted to 1500 nM; with CCRF-CEM, 15.4 nM; in the assay with HepG2, 6 nM; in the assay on SMMC-7721 it was 646 nM.
Take `COc1ccc(-c2c(-c3ccc(OC)cc3OC)c(=O)c2=O)cc1`: the IC50 with CCRF-CEM was determined as 1510 nM.
Take `COc1ccc(-c2c(-c3cc(OC)c(OC)c(OC)c3)c(=O)c2=O)cc1OC(C)=O`: the IC50 in the assay on CCRF-CEM is 1.8 nM.
For the compound `COc1ccc(-c2c(-c3cc(OC)c(OC)c(OC)c3)c(=O)c2=O)cc1N`, the IC50 was found to be 14 nM with Bel-7402 [1]; 164 nM in the assay on MCF7 [2]; 1770 nM with SW1990; 1.4 nM in the assay on CCRF-CEM; 5 nM in the assay with HepG2; 5 nM in the assay with HCT-116. Further, the IC50 with SMMC-7721 came out at 190 nM. In addition, in the assay on Bel-7402 [3], the “Ratio IC50” value was found to be 122. Moreover, the result with MCF7 [4] was Active.
As to `COc1cc(-c2c(-c3ccc4cc[nH]c4c3)c(=O)c2=O)cc(OC)c1OC`, the IC50 with Bel-7402 [1] is 3620 nM; with CCRF-CEM, 6.6 nM; in the assay on HepG2, 6 nM; in the assay with SMMC-7721 it was 2540 nM.
On to `COc1ccc(-c2c(-c3ccc(OC)c(OC)c3OC)c(=O)c2=O)cc1`, for which, in the assay with CCRF-CEM, the IC50 came out at 2480 nM.
Turning to `COc1cc(-c2c(-c3ccccc3)c(=O)c2=O)cc(OC)c1OC`, in the assay with CCRF-CEM, the 50% inhibitory concentration (IC50) was 16100 nM.
Regarding `COc1ccc(-c2c(-c3ccc(OC)cc3)c(=O)c2=O)cc1`, the 50% inhibitory concentration (IC50) with CCRF-CEM was greater than 20000 nM.
Same read-out and setting: then `COc1ccc(-c2c(-c3c(OC)cc(OC)cc3OC)c(=O)c2=O)cc1`, with 850 nM; and `COc1ccc(-c2c(-c3cc(OC)c(OC)c(OC)c3)c(=O)c2=O)cc1Cl`, with 136 nM; and `COc1ccc(-c2c(-c3cc(OC)c(OC)c(OC)c3)c(=O)c2=O)cc1OC`, with 210 nM.
Consider `COc1ccc(-c2c(-c3cc(OC)c(OC)c(OC)c3)c(=O)c2=O)cc1F`, for which the IC50 in the assay on Bel-7402 [1] was 13 nM; in the assay with MCF7 [2], 5 nM; in the assay on SW1990, 27 nM; with CCRF-CEM, 11.5 nM; with HepG2, 105 nM; with HCT-116, 81 nM. Also, in the assay with SMMC-7721, the IC50 was 176 nM.
For `COc1ccc(-c2c(-c3cc(OC)c(OC)c(OC)c3)c(=O)c2=O)cc1O`, the IC50 with Bel-7402 [1] came out at 309 nM; in the assay on MCF7 [2] it was 6 nM; in the assay with SW1990 it was 245 nM; in the assay with CCRF-CEM, 1.7 nM; with HepG2 it was 14 nM; with HCT-116, 5 nM. Moreover, the IC50 in the assay with SMMC-7721 is 1520 nM. Also, the “Ratio IC50” value with Bel-7402 [3] and in the assay with MCF7 [5] was 5 each time. The result in the assay with MCF7 [6] was Active.
For `COc1ccc(/C=C\c2cc(OC)c(OC)c(OC)c2)cc1O` [COMBRETASTATIN A4], the figures for the IC50 in the assay on MCF7 [2] and in the assay with CCRF-CEM were 29 nM and 1.6 nM, respectively.
Regarding `COc1ccc(-c2c(-c3cc(OC)c(OC)c(OC)c3)c(=O)c2=O)cc1`, the IC50 in the assay on CCRF-CEM stood at 16 nM.
